Test results taken from patent publication US20090208747A1, “Novel Crystalline Methods and Novel Crystalline and Amorphous forms of Halogenated Sugars” (V.B. MEDICARE PVT. LTD, priority 2006, published 2009).

Key:
Particle size analysis = conditions: for particle size distribution at 90%: 90% of particles below this size
[1] = Accelerated stability test, sealed containers incubated at 50° C.; format: physicochemical; conditions: sealed container
Description: For extrapolating potential storage stability beyond one year, an accelerated storage stability test was conducted. In this test, crystalline TGS of small and large mean particle size was incubated at 50° C. in sealed containers. Percent assay and pH were tested after each 24 hours for five successive days. […] A three days' stability in accelerated stability test is extrapolated by Catani et al (2005) to 8 years of storage stability at ambient temperature.
All the three samples were taken in sealed containers and were incubated at 50° C. […]

[2] = Analysis against JECFA specifications: solubility; format: physicochemical; conditions: in ethyl acetate
[3] = Stability testing as per ICH Guideline Q1A(R2), storage stability; format: physicochemical; conditions: for Appearance: storage condition not given
Source text: Stability testing was done as per ICH Harmonised Tripaertite Guideline Stability Testing of New drug substances and Products Q1A(R2) issued by International Conference on Hamonization of technical requirements for registration of pharmaceuticals for human use and recommended for adoption at Step 4 of the ICH Process on 6 Feb.
Details are given on table nos 1 to 4 given in the following: […]

[4] = Fourth day, listed as Amorphous TGS

For `OC[C@H]1O[C@H](O[C@]2(CCl)O[C@H](CCl)[C@@H](O)[C@@H]2O)[C@H](O)[C@@H](O)[C@H]1Cl` [1′-6′-Dichloro-1′-6′-DIDEOXY-β-Fructofuranasyl-4-chloro-4-deoxy-galactopyranoside], the “particle size distribution at 90%” value (Particle size analysis; listed as Example 5) was “below 240 microns”, the mean particle size (Particle size analysis; listed as Crystalline TGS (big particle size)) was “about 35 micron” and the “Assay (%)” value ([1]; Fifth day) was 96.86%. For the same molecule, the PH ([1]; Fifth day) was 7.00, the “Assay (%)” value ([1]; First day) was 98.73% and the PH ([1]; First day) was 7.08. The “Assay (%)” value ([1]; Fourth day) was 97.06%, the PH ([1]; Fourth day) was 7.00 and the “Assay (%)” value ([1]; Second day) was 98.21%. For the same molecule, the PH ([1]; Second day) was 7.08, the “Assay (%)” value ([1]; Sixth day) was 96.72% and the PH ([1]; Sixth day) was 7.02. For the same molecule, the “Assay (%)” value ([1]; Third day) was 97.53%, the PH ([1]; Third day) was 7.02 and the “decline in percent assay” value ([1]; by fifth day) was 1.87%. The “decline in percent assay” value ([1]; by sixth day) was 2.01%, the “decline in percent assay” value ([1]; in first three days, listed as large particle size crystalline TGS) was 1.2% and the “difference in pH” value ([1]; over the test period) was “not substantial”.
In the case of `OC[C@H]1O[C@H](O[C@]2(CCl)O[C@H](CCl)[C@@H](O)[C@@H]2O)[C@H](O)[C@@H](O)[C@H]1Cl` [Amorphous TGS small particle size, 1′-6′-Dichloro-1′-6′-DIDEOXY-β-Fructofuranasyl-4-chloro-4-deoxy-galactopyranoside], the Solubility [2] is reported as “water. Slightly”, the “particle size distribution at 90%” value (Particle size analysis; listed as Example 3) is reported as “below 6 microns” and the “particle size distribution at 90%” value (Particle size analysis; listed as amorphous product) is reported as “less than 6 microns”. For the same molecule, the largest particle size (Particle size analysis; listed as amorphous form) was no more than 14 microns, the PH ([1]; Fifth day) was 7.06 and the “Assay (%)” value ([1]; Fifth day, listed as Amorphous TGS) was 98.19%. The PH ([1]; First day) was 7.03, the “Assay (%)” value ([1]; First day, listed as Amorphous TGS) was 98.21% and the “Assay (%)” value [1, 4] was 98.18%. The PH [1, 4] was 7.02, the PH ([1]; Second day) was 7.03 and the “Assay (%)” value ([1]; Second day, listed as Amorphous TGS) was 98.20%. For the same molecule, the PH ([1]; Sixth day) was 7.05, the “Assay (%)” value ([1]; Sixth day, listed as Amorphous TGS) was 98.17% and the “Assay (%)” value ([1]; Third day, listed as Amorphous TGS) was 98.24%. For the same molecule, the “decline in percent assay” value ([1]; in first three days, listed as Amorphous form) was 0.08%, the “decline in percent assay” value ([1]; in first three days, listed as amorphous form) was 0.08% and the “decline in pH” value ([1]; over three days) was 0.08 units. The Assay ([3]; 25° C. ± 2° C. 60% RH ± 5% RH, 1st month) was 99.34%, the Assay ([3]; 25° C. ± 2° C. 60% RH ± 5% RH, 2nd month) was 99.36% and the Assay ([3]; 25° C. ± 2° C. 60% RH ± 5% RH, 3rd month) was 99.32%. The Assay ([3]; 25° C. ± 2° C. 60% RH ± 5% RH, 4th month) was 99.36%, the Assay ([3]; 25° C. ± 2° C. 60% RH ± 5% RH, 5th month) was 99.28% and the Assay ([3]; 25° C. ± 2° C. 60% RH ± 5% RH, 6th month) was 99.23%. For the same molecule, the Assay ([3]; 25° C. ± 2° C. 60% RH ± 5% RH, 12th month) was 99.22%, the Assay ([3]; 25° C. ± 2° C. 60% RH ± 5% RH, 24th month) was 99.14% and the Assay ([3]; 30° C. ± 2° C. 65% RH ± 5% RH, 1st month) was 99.84%. For the same molecule, the Assay ([3]; 30° C. ± 2° C. 65% RH ± 5% RH, 2nd month) was 99.84%, the Assay ([3]; 30° C. ± 2° C. 65% RH ± 5% RH, 3rd month) was 99.62% and the Assay ([3]; 30° C. ± 2° C. 65% RH ± 5% RH, 4th month) was 99.65%. The Assay ([3]; 30° C. ± 2° C. 65% RH ± 5% RH, 5th month) was 99.58%, the Assay ([3]; 30° C. ± 2° C. 65% RH ± 5% RH, 6th month) was 99.53% and the Assay ([3]; 30° C. ± 2° C. 65% RH ± 5% RH, 12th month) was 99.62%. For the same molecule, the Assay ([3]; 30° C. ± 2° C. 65% RH ± 5% RH, 24th month) was 99.32%, the Assay ([3]; 40° C. ± 2° C. 75% RH ± 5% RH, 1st month) was 99.68% and the Assay ([3]; 40° C. ± 2° C. 75% RH ± 5% RH, 2nd month) was 99.65%. It also gave an Assay ([3]; 40° C. ± 2° C. 75% RH ± 5% RH, 3rd month) of 99.67%, an Assay ([3]; 40° C. ± 2° C. 75% RH ± 5% RH, 4th month) of 99.58% and an Assay ([3]; 40° C. ± 2° C. 75% RH ± 5% RH, 5th month) of 99.52%. For the same molecule, the Assay ([3]; 40° C. ± 2° C. 75% RH ± 5% RH, 6th month) was 99.46%, the Assay ([3]; 40° C. ± 2° C. 75% RH ± 5% RH, 12th month) was 99.52% and the Assay ([3]; 40° C. ± 2° C. 75% RH ± 5% RH, 24th month) was 99.12%. The Assay ([3]; INITIAL (printed in the 40° C. ± 2° C. 75% RH ± 5% RH column)) was 99.70%, the stability in storage ([3]; storage) was “stable for at least one year in storage” and the Appearance ([3]; 1st month) was “Normal”. For the same molecule, the Appearance ([3]; 2nd month) was “Normal”, the Appearance ([3]; 3rd month) was “Normal” and the Appearance ([3]; 4th month) was “Normal”. For the same molecule, the Appearance ([3]; 5th month) was “Normal”, the Appearance ([3]; 6th month) was “Normal” and the Appearance ([3]; 12th month) was “Normal”. For the same molecule, the Appearance ([3]; 24th month) was “Normal”, the Appearance ([3]; INITIAL) was “Normal” and the “stability compared to the crystalline form” value ([3]; table 4) was “much more stable”.
For `OC[C@H]1O[C@H](O[C@]2(CCl)O[C@H](CCl)[C@@H](O)[C@@H]2O)[C@H](O)[C@@H](O)[C@H]1Cl` [Example 4, 1′-6′-Dichloro-1′-6′-DIDEOXY-β-Fructofuranasyl-4-chloro-4-deoxy-galactopyranoside], the “particle size distribution at 90%” value (Particle size analysis) was less than 95 microns.
In the case of `OC[C@H]1O[C@H](O[C@]2(CCl)O[C@H](CCl)[C@@H](O)[C@@H]2O)[C@H](O)[C@@H](O)[C@H]1Cl` [Example 6, 1′-6′-Dichloro-1′-6′-DIDEOXY-β-Fructofuranasyl-4-chloro-4-deoxy-galactopyranoside], the “particle size distribution at 90%” value (Particle size analysis) is reported as “below 12 microns”.
